{"source": "patent EP4385508A1", "about": "“FURAN FATTY ACIDS FOR ENHANCING MUSCLE MASS” (Centre de Coopération Internationale en Recherche …, priority 2022, dated 2024)", "type_in_all_cases": "cell-based, Mouse", "key": {"[1]": {"system": "C2C12 myotubes", "assay": "Total protein content (protein accretion) in C2C12 myotubes", "conditions": "whatever the dose (1, 10, 50 µM), 3 days of supplementation, vs control", "description": "(§1) Mouse myoblasts of the C2C12 cell line (ATCC) were seeded at a plating density of 7000 cells/cm2 in 6-well plates. They were grown in DMEM high glucose (4.5g/l) supplemented with gentamycin (50 µg/mL), amphotericin (50 µg/mL), and fetal calf serum (10%). Terminal differentiation was induced at cell confluence by lowering the medium serum concentration (0.5%).\n(§2) When indicated, FuFA-F2 was added to the culture medium at the indicated concentration. For the differentiation studies, FuFA-F2 was added at the confluence at the same time as the change in media condition. Three doses of FuFA-F2 were studied at a final concentration of 1, 10, or 50 µM. Human insulin was used at a concentration of 100 nM.\n(§3) Protein levels were assessed by Western blotting. Total proteins were measured using the Bio-Rad protein assay (Hercules, CA, USA) according to the manufacturer's instructions. Total proteins were lysed in RIPA buffer (20mM Tris, 150mM NaCl, 1mM EDTA, 1% NP40, pH 7.5 + complete cocktail protease inhibitors + Pierce phosphatase inhibitors tablet). 40 µg of cell extracts were loaded and blotted onto a nitrocellulose membrane. The membranes were washed, blocked with 5% nonfat milk and incubated in primary antibody overnight at 4°C. […]"}, "[2]": {"system": "AMP activated protein kinase (AMPK)", "assay": "AMPK phosphorylation by Western blot in C2C12 myotubes", "conditions": "whatever the dose", "description": "as §1, §2\nProtein levels were assessed by Western blotting. Total proteins were measured using the Bio-Rad protein assay (Hercules, CA, USA) according to the manufacturer's instructions. […]\nAMP activated protein kinase (AMPK) is a crucial cellular energy sensor protein and is activated when intracellular ATP level decreases to regulate autophagy initiation (Hardie et al., 2012, Nat Rev Mol Cell Bio, Vol. 13 (4) : 251-262). […] The autophagy-related signaling was further evaluated by measuring the MTORC1 mediated phosphorylation […] at Ser757 which disrupts the interaction between ULK1 and AMPK. […] Therefore, the autophagic flux was assessed by measuring the conversion of LC3-I to LC3-II, through lipidation."}, "[3]": {"system": "Akt (Ser473)", "assay": "Akt phosphorylation by Western blot in C2C12 myotubes", "conditions": "FuFA-F2 together with insulin; 3-day pretreatment, 2 hours low-glucose, 30 minutes", "description": "as §1, §2, §3"}}, "data": [{"smiles": "CCCCCc1cc(C)c(CCCCCCCCC(=O)O)o1", "note": "[FuFA-F2]", "values": [{"measurement": "total protein content in C2C12 myotubes", "setting": "[1]", "result": "significantly increase"}, {"measurement": "Activation level of AMPK, phosphorylation at Thr172", "setting": "[2]", "result": "significantly decreased"}, {"measurement": "insulin-induced phosphorylation of Akt", "setting": "[3]", "result": "did not alter"}]}]}
